Target: T1, PCP (Phencylidine) receptor (Rattus norvegicus, UniProt P35439)
T1 construct: the pellets were then suspended in 5mM Tris-HCI buffer and used as the receptor preparation; from tissue; host or cells: rat (male Slc-Wistar) cerebral cortex membrane preparation
Test: Binding test against PCP (Phencylidine) receptor, 3H-TCP displacement in rat cortex membrane preparation
Set-up: species or system rats (male, Slc-Wistar rat)
Conditions: rat cortex receptor preparation (0.2mg protein/ml), labelled ligand 3H-TCP, 25 °C 30 minutes
Description: Binding test against PCP (Phencylidine) receptor Experiment
After the decapitation of rats (male, Slc-Wistar rat, 10 15 weeks age), the cortex tissues was rapidly removed and each was weighed. The tissue was homogenized with ten-fold amount of ice-cold 50mM Tris-HCI buffer (pH7.4), and centrifuged at 40,000 x g for 10 minutes. This procedure is repeated 3 times. Then the obtained sample was freeze-dried in liquid nitrogen and preserved at -80 ° C On the test day, the sample was thawed at room temperature and centrifuged at 40,000 x g for 10 minutes, the pellets were then suspended in 5mM Tris-HCI buffer and used as the receptor preparation (0.2mg protein/ml). The preparation was added to the mixture containing the labelled ligand (^3H-TCP, […]) and the test drug, and the incubation was carried out (25 °C 30 minutes). The reaction was stopped by rapid filtering through Whatman GF/C filter and the filtrate was washed. Radioactivity on filters was determined by liquid scintillation counter and Ki value was calculated. The Whatmann GF/C filter was soaked in 0.05 % polyethyleneimine. (Literature : Vignon, J. et al., Brain R.,280; 194-197 (1983))

Compound | Ki [µM]
Cc1ccc2c(c1)C1(CCCN1)c1ccccc1CC2 (stereo not drawn) [I a-7] | 0.031
Clc1ccc2c(c1)C1(CCCN1)c1ccccc1CC2 (stereo not drawn) [I a-13, Spiro(3-chlorodibenzosuberane-5,2'-pyrrolidine)] | 0.023
CCN1CCCC12c1ccccc1CCc1ccccc12 [I a-3, Spiro[dibenzosuberane-5,2'-(1-ethylpyrrolidine)]] | 0.62
Cc1ccc2c(c1)C1(CCCN1C)c1ccccc1CC2 (stereo not drawn) [I a-8] | 0.51
CCN1CCCC12c1ccccc1CCc1ccc(C)cc12 (stereo not drawn) [I a-10] | 0.25
c1ccc2c(c1)CCc1ccccc1C21CCCN1 [I a-1, Spiro(dibenzosuberane-5,2'-pyrrolidine)] | 0.047
CCN1CCCC12c1ccccc1CCc1ccc(Cl)cc12 (stereo not drawn) [I a-14] | 0.54
Cc1ccc2c(c1)C1(CCCN1Cc1ccccc1)c1ccccc1CC2 (stereo not drawn) [I a-11] | > 0.71
CCCN1CCCC12c1ccccc1CCc1ccc(C)cc12 (stereo not drawn) [I a-9, Spiro[3-methyldibenzosuberane-5,2'-(1-n-propylpyrrolidine)]] | 0.77

Reference: patent publication EP0456183B1, “Spiro dibenzosuberane derivatives” (SHIONOGI SEIYAKU KABUSHIKI KAISHA, priority 1990, dated 1991)
